In article PMC4303209, “A novel phosphatidylinositol 3-kinase (PI3K) inhibitor directs a potent FOXO-dependent, p53-independent cell cycle arrest phenotype characterized by the differential induction of a subset of FOXO-regulated genes” (Breast Cancer Research : BCR, 2014):

Test system: MCF-7 breast cancer cells
Assay: Microarray gene expression analysis (Agilent whole human genome 4 x 44K; compound vs DMSO, LIMMA log2 fold change)
Assay type: cell-based
Conditions: Apoptosis genes

SMILES: Oc1cccc(-c2nc(N3CCOCC3)c3oc4ncccc4c3n2)c1 [PI-103]
- ITGB3BP log2FC (Gene 23421): 0.693
- RYBP log2FC (Gene 23429): 0.361
- HEY2 log2FC (Gene 23493): -0.116
- SCRIB log2FC (Gene 23513): 0.029
- CLCF1 log2FC (Gene 23529): -0.682
- PRAME log2FC (Gene 23532): -0.450
- DDAH2 log2FC (Gene 23564): 0.378
- ZNF346 log2FC (Gene 23567): -0.012
- CASP14 log2FC (Gene 23581): -0.041
- NUP62 log2FC (Gene 23636): -0.627
- PPP1R15A log2FC (Gene 23645): 0.513
- AIPL1 log2FC (Gene 23746): 0.177
- FKBP8 log2FC (Gene 23770): 0.044
- BCL2L13 log2FC (Gene 23786): 0.110
- MTCH1 log2FC (Gene 23787): 0.149
- NGEF log2FC (Gene 25791): 0.857
- SPDEF log2FC (Gene 25803): -0.186
- TNFAIP8 log2FC (Gene 25816): 0.677
- PRDX5 log2FC (Gene 25824): 0.047
- BRMS1 log2FC (Gene 25855): -0.476
- SIN3A log2FC (Gene 25942): 0.891
- HIGD1A log2FC (Gene 25994): -0.106
- SERBP1 log2FC (Gene 26135): 0.167
- NOC2L log2FC (Gene 26155): -0.855
- TIAM2 log2FC (Gene 26230): 0.365
- AATF log2FC (Gene 26574): -0.415
- GREM1 log2FC (Gene 26585): -0.405
- CKAP2 log2FC (Gene 26586): 0.629
- CYFIP2 log2FC (Gene 26999): 0.053
- NGFRAP1 log2FC (Gene 27018): 0.277
- ANKRD1 log2FC (Gene 27063): 0.350
- GHITM log2FC (Gene 27069): 0.386
- BBC3 log2FC (Gene 27113): 2.072
- CIDEB log2FC (Gene 27141): -0.033
- GLS2 log2FC (Gene 27165): 0.410
- TNFRSF21 log2FC (Gene 27242): -1.071
- PDCD4 log2FC (Gene 27250): 1.703
- KLHL20 log2FC (Gene 27252): 0.115
- CECR2 log2FC (Gene 27443): -0.150
- DBNL log2FC (Gene 28988): -0.248
- HIPK2 log2FC (Gene 28996): -0.140
- SAP30BP log2FC (Gene 29115): -0.468
- LGALS13 log2FC (Gene 29124): -0.059
- CARD10 log2FC (Gene 29775): -0.449
- SENP1 log2FC (Gene 29843): 0.227
- TFPT log2FC (Gene 29844): -0.472
- PNMA3 log2FC (Gene 29944): 0.668
- UBQLN1 log2FC (Gene 29979): -0.069
- ERO1L log2FC (Gene 30001): 0.078
- SH3KBP1 log2FC (Gene 30011): 0.268
- KCNIP3 log2FC (Gene 30818): 0.232
- RRM2B log2FC (Gene 50484): 0.526
- G0S2 log2FC (Gene 50486): -0.054
- NOX4 log2FC (Gene 50507): 0.041
- CHST11 log2FC (Gene 50515): -0.946
- ARHGEF4 log2FC (Gene 50649): 0.008
- ARHGEF3 log2FC (Gene 50650): 0.506
- GLRX2 log2FC (Gene 51022): -0.261
- RPS27L log2FC (Gene 51065): 0.277
- APIP log2FC (Gene 51074): 0.039
- NDUFA13 log2FC (Gene 51079): -0.041
- GAL log2FC (Gene 51083): -0.333
- SH3GLB1 log2FC (Gene 51100): 0.561
- APH1A log2FC (Gene 51107): -0.371
- UTP11L log2FC (Gene 51118): -0.906
- IER3IP1 log2FC (Gene 51124): 0.357
- ANGPTL4 log2FC (Gene 51129): -0.819
- ING4 log2FC (Gene 51147): 1.595
- LEF1 log2FC (Gene 51176): -0.888
- BFAR log2FC (Gene 51283): 0.201
- PLAC8 log2FC (Gene 51316): -0.057
- TNFRSF12A log2FC (Gene 51330): -0.619
- ANGPT4 log2FC (Gene 51378): 0.049
- DDX41 log2FC (Gene 51428): -0.065
- GULP1 log2FC (Gene 51454): 1.663
- TRIAP1 log2FC (Gene 51499): -0.858
- ZC3HC1 log2FC (Gene 51530): 0.156
- PIAS4 log2FC (Gene 51588): -0.121
- PIGT log2FC (Gene 51604): 0.362
- TAF9B log2FC (Gene 51616): 0.327
- PTRH2 log2FC (Gene 51651): -0.374
- WWOX log2FC (Gene 51741): -0.808
- SIX4 log2FC (Gene 51804): 0.497
- IL20RA log2FC (Gene 53832): 0.039
- CYCS log2FC (Gene 54205): -0.602
- WNT4 log2FC (Gene 54361): -0.419
- DNAJC10 log2FC (Gene 54431): 0.610
- ZFAND6 log2FC (Gene 54469): 0.333
- ADAMTSL4 log2FC (Gene 54507): -0.373
- DDIT4 log2FC (Gene 54541): -1.201
- ING3 log2FC (Gene 54556): 0.724
- RRN3 log2FC (Gene 54700): -0.333
- AHI1 log2FC (Gene 54806): 0.380
- QRICH1 log2FC (Gene 54870): 0.076
- TMEM161A log2FC (Gene 54929): -0.337
- PHIP log2FC (Gene 55023): 1.071
- USP47 log2FC (Gene 55031): 0.614
- OXR1 log2FC (Gene 55074): 0.376
- UACA log2FC (Gene 55075): 0.829
- IFT57 log2FC (Gene 55081): 0.433
- XKR8 log2FC (Gene 55113): 0.252
- SHQ1 log2FC (Gene 55164): -0.188
- FAIM log2FC (Gene 55179): 0.119
- MAP1S log2FC (Gene 55201): -0.149
- ATAD3A log2FC (Gene 55210): -0.126
- STEAP3 log2FC (Gene 55240): -0.441
- RHOT1 log2FC (Gene 55288): 0.535
- RFK log2FC (Gene 55312): 0.631
- PARL log2FC (Gene 55486): -0.181
- TNFRSF19 log2FC (Gene 55504): -0.091
- CCAR1 log2FC (Gene 55749): 0.552
- PCID2 log2FC (Gene 55795): 0.323
- RNF130 log2FC (Gene 55819): 0.00747
- EAF2 log2FC (Gene 55840): 0.144
- PSENEN log2FC (Gene 55851): -0.013
- BCAP29 log2FC (Gene 55973): 0.083
- TEX11 log2FC (Gene 56159): 0.000672
- CTNNBL1 log2FC (Gene 56259): -0.138
- DIABLO log2FC (Gene 56616): -0.156
- ASAH2 log2FC (Gene 56624): -0.210
- TRIM39 log2FC (Gene 56658): -0.128
- BARHL1 log2FC (Gene 56751): -0.298
- FMN2 log2FC (Gene 56776): 0.00262
- SPHK2 log2FC (Gene 56848): -0.341
- C8orf4 log2FC (Gene 56892): 0.00123
- MEIS3 log2FC (Gene 56917): -0.122
- DUSP22 log2FC (Gene 56940): 0.209
- CIAPIN1 log2FC (Gene 57019): -0.420
- PCBP4 log2FC (Gene 57060): -0.275
- AVEN log2FC (Gene 57099): -0.638
- CAMK1D log2FC (Gene 57118): -0.189
- RTN4 log2FC (Gene 57142): -0.088
- PAK7 log2FC (Gene 57144): 0.451
- BIRC6 log2FC (Gene 57448): 0.144
- TAOK1 log2FC (Gene 57551): 0.399
- SEMA6A log2FC (Gene 57556): 0.047
- SH3RF1 log2FC (Gene 57630): -0.495
- USP28 log2FC (Gene 57646): 0.030
- GPAM log2FC (Gene 57678): -0.052
- CHD8 log2FC (Gene 57680): -0.161
- TRIB3 log2FC (Gene 57761): 0.076
- NGB log2FC (Gene 58157): -0.260
- RBM25 log2FC (Gene 58517): 0.334
- SAV1 log2FC (Gene 60485): 0.586
- PROK2 log2FC (Gene 60675): -0.058
- ELMO2 log2FC (Gene 63916): 0.585
- CIDEC log2FC (Gene 63924): 0.292
- FIGNL1 log2FC (Gene 63979): -0.235
- PERP log2FC (Gene 64065): 0.731
- MOAP1 log2FC (Gene 64112): 0.507
- RRAGC log2FC (Gene 64121): 1.556
- IFIH1 log2FC (Gene 64135): 0.872
- ZMAT3 log2FC (Gene 64393): -0.151
- ATG3 log2FC (Gene 64422): 0.194
- SUDS3 log2FC (Gene 64426): -0.027
- MICAL1 log2FC (Gene 64780): -0.125
- PLEKHG2 log2FC (Gene 64857): -0.516
